Like-named read-outs stand apart in the source and are kept apart here.
What was measured:
[1] = test system: NCI-H1975 cells harboring EGFR L585R/T790M mutations
Method: (§1) Immunocompromised nude/nude mice are inoculated in the right hind flank with NCI-H1975 cells harboring EGFR L585R/T790M mutations. When tumor volumes reach between 200-400 mm^3 in size, the mice are divided into four groups of 4-12 mice each. The first group is administered vehicle only. […] The fourth and fifth groups are administered the single agent dose of the EGFR inhibitor in combination with the single agent dose of the SOS1 inhibitor. The treatment period was 21 days. Tumor volumes are measured using a caliper every two-three days and tumor volumes are calculated by the formula: 0.5×(Length×Width)2.
30 nude/nude mice were inoculated in the right hind limb with 5×10^6 NCI-H1975 cells.

[2] = test system: PC9 cells harboring EGFR exon 19del (E746_A750del) mutation
Method: as §1, with “NOD/SCID” for “nude/nude”, “PC9” for “NCI-H1975”, “exon 19del (E746_A750del) mutation.” for “L585R/T790M mutations.”, “100-150” for “200-400”, “27” for “21”, “0.5×(Length×Width) 2.” for “0.5×(Length×Width)2.”
30 NOD/SCID mice were inoculated in the right hind limb with 5×10^6 PC9 cells.

[3] = Study Day 3, MRTX0902 50 mg/kg p.o.
[4] = Study Day 10, MRTX0902 50 mg/kg p.o.
[5] = Study Day 14, MRTX0902 50 mg/kg p.o.
[6] = Study Day 21, MRTX0902 50 mg/kg p.o.
[7] = Study Day 3, Osimertinib 2.5 mg/kg QD p.o.
[8] = Study Day 10, Osimertinib 5 mg/kg QD p.o.
[9] = Study Day 21, Osimertinib 5 mg/kg QD p.o.

Cc1c(C#N)cccc1[C@@H](C)Nc1nnc(C)c2cnc(N3CCOCC3)cc12 [MRTX0902, (R)-2-methyl-3-(1-((4-methyl-7-morpholinopyrido[3,4-d]pyridazin-1-yl)amino)ethyl)benzonitrile]
tumor growth inhibition ([1]; MRTX0902 50 mg/kg BID single agent): 26%
Average Tumor Volume ([1]; Study Day 0, MRTX0902 50 mg/kg p.o.): 285 mm^3
Average Tumor Volume [1, 3]: 504 mm^3
Average Tumor Volume ([1]; Study Day 7, MRTX0902 50 mg/kg p.o.): 808 mm^3
Average Tumor Volume [1, 4]: 1028 mm^3
Average Tumor Volume [1, 5]: 1387 mm^3
Average Tumor Volume ([1]; Study Day 17, MRTX0902 50 mg/kg p.o.): 1527 mm^3
Average Tumor Volume [1, 6]: 1372 mm^3
tumor growth inhibition ([2]; MRTX0902 50 mg/kg BID): 54%
Average Tumor Volume [2, 3]: 197 mm^3
Average Tumor Volume ([2]; Study Day 6, MRTX0902 50 mg/kg p.o.): 247 mm^3
Average Tumor Volume [2, 4]: 330 mm^3
Average Tumor Volume [2, 5]: 442 mm^3
Average Tumor Volume ([2]; Study Day 18, MRTX0902 50 mg/kg p.o.): 578 mm^3
Average Tumor Volume [2, 6]: 661 mm^3
Average Tumor Volume ([2]; Study Day 24, MRTX0902 50 mg/kg p.o.): 755 mm^3
Average Tumor Volume ([2]; Study Day 27, MRTX0902 50 mg/kg p.o.): 798 mm^3
Average Tumor Volume ([2]; Study Day −1, MRTX0902 50 mg/kg p.o.): 112 mm^3

C=CC(=O)Nc1cc(Nc2nccc(-c3cn(C)c4ccccc34)n2)c(OC)cc1N(C)CCN(C)C [Osimertinib, osimertinib]
Average Tumor Volume ([1]; Study Day 0, Osimertinib 2.5 mg/kg QD p.o.): 286 mm^3
Average Tumor Volume ([1]; Study Day 0, Osimertinib 5 mg/kg QD p.o.): 286 mm^3
Average Tumor Volume [1, 7]: 288 mm^3
Average Tumor Volume ([1]; Study Day 3, Osimertinib 5 mg/kg QD p.o.): 173 mm^3
Average Tumor Volume ([1]; Study Day 7, Osimertinib 2.5 mg/kg QD p.o.): 325 mm^3
Average Tumor Volume [1, 8]: 70 mm^3
Average Tumor Volume ([1]; Study Day 17, Osimertinib 2.5 mg/kg QD p.o.): 468 mm^3
Average Tumor Volume ([1]; Study Day 17, Osimertinib 5 mg/kg QD p.o.): 83 mm^3
Average Tumor Volume [1, 9]: 135 mm^3
tumor growth ([1]; mouse, in vivo): 89%
tumor regression ([1]; osimertinib 5 mg/kg single agent, day 17): −71%
Average Tumor Volume [2, 7]: 124 mm^3
Average Tumor Volume ([2]; Study Day 6, Osimertinib 5 mg/kg QD p.o.): 95 mm^3
Average Tumor Volume [2, 8]: 69 mm^3
Average Tumor Volume ([2]; Study Day 14, Osimertinib 5 mg/kg QD p.o.): 65 mm^3
Average Tumor Volume ([2]; Study Day 18, Osimertinib 2.5 mg/kg QD p.o.): 150 mm^3
Average Tumor Volume ([2]; Study Day 18, Osimertinib 5 mg/kg QD p.o.): 60 mm^3
Average Tumor Volume [2, 9]: 62 mm^3
Average Tumor Volume ([2]; Study Day 24, Osimertinib 2.5 mg/kg QD p.o.): 209 mm^3
Average Tumor Volume ([2]; Study Day 27, Osimertinib 2.5 mg/kg QD p.o.): 214 mm^3
Average Tumor Volume ([2]; Study Day −1, Osimertinib 2.5 mg/kg QD p.o.): 108 mm^3
tumor growth ([2]; mouse, in vivo): 92.8%
tumor regression ([2]; osimertinib 5 mg/kg single agent, day 27): −32.5%
